Data taken from PMC8182759, “Cryo-Electron Microscopy of Arabidopsis thaliana Phytochrome A in Its Pr State Reveals Head-to-Head Homodimeric Architecture” (Frontiers in Plant Science, 2021).

T1: AtphyA (Arabidopsis thaliana phytochrome A, full length) (Arabidopsis thaliana, UniProt P14712)
T1 construct: gene PHYA; full length, residues 1-1122, C-terminal hexahistidine tag kept; E. coli BL21(DE3) LOBSTR, plasmid pDG388 co-expressing Synechocystis heme oxygenase and PcyA; homodimer (dimer/monomer mixture at pH 9.3)
T1 sequence (P14712 1-1122): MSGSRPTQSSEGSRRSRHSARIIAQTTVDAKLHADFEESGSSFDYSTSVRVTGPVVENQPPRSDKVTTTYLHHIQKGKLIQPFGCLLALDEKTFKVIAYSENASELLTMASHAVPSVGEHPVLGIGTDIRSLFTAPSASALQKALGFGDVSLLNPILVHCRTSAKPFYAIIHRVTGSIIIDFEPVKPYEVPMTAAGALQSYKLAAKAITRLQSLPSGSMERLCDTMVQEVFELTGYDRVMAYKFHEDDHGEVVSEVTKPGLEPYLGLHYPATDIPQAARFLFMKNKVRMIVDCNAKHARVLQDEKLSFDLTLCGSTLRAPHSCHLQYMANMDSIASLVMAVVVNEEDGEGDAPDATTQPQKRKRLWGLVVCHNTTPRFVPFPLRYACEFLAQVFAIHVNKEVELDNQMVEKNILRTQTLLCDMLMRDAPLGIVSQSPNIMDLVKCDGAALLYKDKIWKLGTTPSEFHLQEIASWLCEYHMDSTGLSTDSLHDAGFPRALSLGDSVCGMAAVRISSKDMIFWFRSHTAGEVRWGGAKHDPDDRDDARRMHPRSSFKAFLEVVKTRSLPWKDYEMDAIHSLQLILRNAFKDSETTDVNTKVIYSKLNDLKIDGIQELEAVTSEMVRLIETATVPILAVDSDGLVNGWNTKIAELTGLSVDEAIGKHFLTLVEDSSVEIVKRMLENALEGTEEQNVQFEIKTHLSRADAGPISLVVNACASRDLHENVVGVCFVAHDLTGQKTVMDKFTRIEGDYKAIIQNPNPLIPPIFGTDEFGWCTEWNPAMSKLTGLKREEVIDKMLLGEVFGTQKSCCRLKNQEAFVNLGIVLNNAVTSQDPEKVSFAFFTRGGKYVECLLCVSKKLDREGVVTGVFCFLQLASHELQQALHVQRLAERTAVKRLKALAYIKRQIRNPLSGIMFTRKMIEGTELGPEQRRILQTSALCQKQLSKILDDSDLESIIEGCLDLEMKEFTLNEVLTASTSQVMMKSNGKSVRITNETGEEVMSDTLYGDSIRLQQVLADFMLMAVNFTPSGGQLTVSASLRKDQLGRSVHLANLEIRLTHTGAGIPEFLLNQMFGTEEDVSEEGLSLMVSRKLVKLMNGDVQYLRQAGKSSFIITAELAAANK


How the values were obtained:
[1] = molecular target: T1, AtphyA (Arabidopsis thaliana phytochrome A, full length); test: zinc-induced bilin fluorescence on denaturing gel; UV/vis absorbance and photoconversion; assay type: binding; details: covalent; bilin attached to a cysteine of the GAF domain; assembled during co-expression in E. coli with heme oxygenase/PcyA; purified at pH 8.0
[2] = molecular target: the molecule itself; test: cryo-EM structure; single-particle cryo-EM of AtphyA purified at pH 9.3, Pr state (730 nm pre-illumination), 1-1.5 mg/ml, 136,173 particles, refinement with 2-fold symmetry, ~17 Å

Molecule	zinc-induced bilin fluorescence on denaturing gel; UV/vis absorbance and photoco [1]	stoichiometry N [2]
C/C=C1/C(=C/c2[nH]c(/C=C3N=C(/C=C4\NC(=O)C(CC)=C4C)C(C)=C\3CCC(=O)O)c(CCC(=O)O)c2C)NC(=O)[C@@H]1C [phycocyanobilin]	full-length AtphyA could be obtained with covalently attached PCB, as detected by zinc-induced bilin fluorescence	–
Arabidopsis thaliana phytochrome A (receptor, UniProt P14712 1-1122, looked up, covalently attached phycocyanobilin (PCB) chromophore, Studied in the Pr state after 730 nm illumination; A plasmid map of pDG388 is in the Supplementary Material; No removal of the His tag is described; also called AtphyA; phyA; source: E. coli BL21(DE3) LOBSTR, purified (Ni-NTA IMAC, SEC), coexpressed with Synechocystis sp. heme oxygenase and PcyA) MSGSRPTQSSEGSRRSRHSARIIAQTTVDAKLHADFEESGSSFDYSTSVRVTGPVVENQPPRSDKVTTTYLHHIQKGKLIQPFGCLLALDEKTFKVIAYSENASELLTMASHAVPSVGEHPVLGIGTDIRSLFTAPSASALQKALGFGDVSLLNPILVHCRTSAKPFYAIIHRVTGSIIIDFEPVKPYEVPMTAAGALQSYKLAAKAITRLQSLPSGSMERLCDTMVQEVFELTGYDRVMAYKFHEDDHGEVVSEVTKPGLEPYLGLHYPATDIPQAARFLFMKNKVRMIVDCNAKHARVLQDEKLSFDLTLCGSTLRAPHSCHLQYMANMDSIASLVMAVVVNEEDGEGDAPDATTQPQKRKRLWGLVVCHNTTPRFVPFPLRYACEFLAQVFAIHVNKEVELDNQMVEKNILRTQTLLCDMLMRDAPLGIVSQSPNIMDLVKCDGAALLYKDKIWKLGTTPSEFHLQEIASWLCEYHMDSTGLSTDSLHDAGFPRALSLGDSVCGMAAVRISSKDMIFWFRSHTAGEVRWGGAKHDPDDRDDARRMHPRSSFKAFLEVVKTRSLPWKDYEMDAIHSLQLILRNAFKDSETTDVNTKVIYSKLNDLKIDGIQELEAVTSEMVRLIETATVPILAVDSDGLVNGWNTKIAELTGLSVDEAIGKHFLTLVEDSSVEIVKRMLENALEGTEEQNVQFEIKTHLSRADAGPISLVVNACASRDLHENVVGVCFVAHDLTGQKTVMDKFTRIEGDYKAIIQNPNPLIPPIFGTDEFGWCTEWNPAMSKLTGLKREEVIDKMLLGEVFGTQKSCCRLKNQEAFVNLGIVLNNAVTSQDPEKVSFAFFTRGGKYVECLLCVSKKLDREGVVTGVFCFLQLASHELQQALHVQRLAERTAVKRLKALAYIKRQIRNPLSGIMFTRKMIEGTELGPEQRRILQTSALCQKQLSKILDDSDLESIIEGCLDLEMKEFTLNEVLTASTSQVMMKSNGKSVRITNETGEEVMSDTLYGDSIRLQQVLADFMLMAVNFTPSGGQLTVSASLRKDQLGRSVHLANLEIRLTHTGAGIPEFLLNQMFGTEEDVSEEGLSLMVSRKLVKLMNGDVQYLRQAGKSSFIITAELAAANK	–	2
